Results on 1 molecule are retold here after patent publication US20100196885A1, “METHODS OF […] COMPOUNDS FOR USE IN TREATING COPD AND OTHER DISEASES” (priority 2007, published 2010).

One assay relates to COPD patients. Description: Spirometry in post-TIO therapy patients. The format is in vivo, human. Conditions: most post-TIO therapy patients. The protocol: COPD patients have elevated levels of D/I in plasma, urine and sputum, which might respond to prolonged bronchodilation. To determine if clinical effects of Tiotropium (TIO) affect tissue degradation of the lung in COPD, clinically stable patients with COPD (n=9) not on TIO prior to the study and at one month and a second month after initiating therapy were tested. Other anticholinergic bronchodilators were stopped prior to TIO, and other therapies/disease treatments were unchanged for the two months of study. To these patients, 18 mcg TIO was administered each 24 hours. D/I in plasma, urine and sputum were measured by liquid chromatography and mass spectrometry (LC/MS) prior to the study and at one month and two months after the study.
The improvement in spirometric indices were usually concordant with levels of D/I in patients.

In the next assay the test system is lung elastin degradation. Description: D/I levels in plasma, urine and sputum of COPD patients before and after Tiotropium, by LC/MS. Format: in vivo, human. On the procedure: The mass spectrometric method was used for direct measurement of D/I in urine, plasma and sputum as markers of elastin degradation in healthy controls, patients with α1-antitrypsin deficiency (AATD) and non-AATD-related COPD. Preparation of specimens of urine and sputum and measurements by mass spectrometry (LC/MS) were performed as previously described in Ma S, Lieberman S, Turino G M and Lin Y Y: The detection and quantitation of free desmosine and isodesmosine in human urine and their peptide-bound forms in sputum. PNAS 2003, 100:12941-12943, which is incorporated by reference as if recited in full herein. D and I standard (mixed 50% D and 50% I) were purchased from Elastin Products (Owensville, Mich.), and all other reagents were from Sigma (St. Louis, Mo.). MCX cation exchange cartridges (3 ml) were obtained from Waters (Milford, Mass.), and CF1 cellulose powders were purchased from Whatman (Clifton, N.J.).
Urine samples. Twenty-four hour urine samples were collected and analyzed as previously described in Ma S, et al., 2003.
Plasma samples. Plasma samples were obtained after centrifuging venous blood specimens at 2500 r.p.m. for 25 min. Samples were stored at −20 C until used. One ml of plasma and 1 ml of concentrated HCl (37%) were placed in a glass vial. After air in the sample was displaced with a stream of nitrogen, the sample was acid hydrolyzed for 24 hours in 6N HCl. After evaporation to dryness, the residue was dissolved in 2 ml of a mixed solution of n-butanol/acetic acid/6 N HCl (4:1:1, by volume). The sample solution was loaded onto a 3 ml CF1 cartridge. The CF1 cartridge was prepared by introducing 3 ml of the slurry of 5% CF1 cellulose powder in a mixture of n-butanol/acetic acid/water (4:1:1, by volume). The cartridge was washed 3 times with 3 ml of n-butanol/acetic acid/water mixture, and D and I adsorbed in the CF1 cartridge were eluted with 3 ml of water. The eluate was evaporated to dryness under vacuum at 45° C. and the residue was dissolved in 0.1 ml of HPLC mobile phase for LC/MS analysis. For analysis in plasma, samples were processed and measured in duplicate and the results averaged.
Sputum Samples. Sputum samples were processed as previously described in Ma S, et al., 2003 with the following modification: The acid hydrolyzed samples were chromatographed using a CF1 cartridge as described in the treatment of plasma samples. Each sputum sample was processed and measured in duplicate and the results averaged. Sputum was obtained from 3-hour morning collections spontaneously produced. When subjects could not voluntarily produce sputum, sputum induction was induced by 3% saline inhalation for 20 minutes as previously described in Ma S, et al., 2003.
COPD patients have elevated levels of D/I in plasma, urine and sputum, which might respond to prolonged bronchodilation. […] Other anticholinergic bronchodilators were stopped prior to TIO, and other therapies/disease treatments were unchanged for the two months of study. To these patients, 18 mcg TIO was administered each 24 hours. D/I in plasma, urine and sputum were measured by liquid chromatography and mass spectrometry (LC/MS) prior to the study and at one month and two months after the study.

Turning to `C[N+]1(C)[C@@H]2C[C@@H](OC(=O)C(O)(c3cccs3)c3cccs3)C[C@H]1[C@@H]1O[C@@H]12` [Tiotropium], in the assay on COPD patients, the “Force Vital Capacity (FVC)” value is listed as “significant increase”, the “Forced Expired Volume in 1 second (FEV1)” value is listed as “significant increase”, the “Residual Volume (RV)” value is reported as “decreases” and the “ratio of FEV1/FVC” value was “significant increase”. Also, the “Significant decreases in D/I levels in plasma (patients showing decrease)” value with lung elastin degradation (COPD patients, 18 mcg TIO each 24 hours, one and two months, plasma, LC/MS) is reported as 10 out of 12. In addition, the “Significant decreases in D/I levels in sputum (patients showing decrease)” value in the assay with lung elastin degradation (COPD patients, 18 mcg TIO each 24 hours, one and two months, sputum, LC/MS) was “all 12 patients”. In addition, the “Significant decreases in D/I levels in urine (patients showing decrease)” value in the assay with lung elastin degradation (COPD patients, 18 mcg TIO each 24 hours, one and two months, urine, LC/MS) is reported as 10 out of 12. For the same molecule, the “Calculated percentage decreases in D/I levels after TIO treatment, time course” value with lung elastin degradation (COPD patients, one month vs second month of TIO) was “decreases beginning after one month with further decreases observed in the second month”. Further, the “D/I levels in plasma, urine and sputum after two months of treatment” value with lung elastin degradation (COPD patients, two months of TIO) was “significant reductions”. In addition, the “Lung elastin degradation, overall response from percent decreases in D/I levels” value with lung elastin degradation (all 12 COPD patients, prolonged TIO treatment) was “some decrease in lung elastin degradation”.
